Assay results: PubChem BioAssay AID248 (DTP/NCI, 2004)
“And” between values parts separate entries of the source, which are not always exact repeats. Equal values may be shown once. Toxic doses and inconclusive results are not listed. No stated cut-off is given here; in the data, active means T/C of 150% or more; inactive means T/C below 125%.

Test system: L1210 leukemia ip in BDF1 mice, survival T/C
Test: NCI In Vivo Anticancer Drug Screen. Data for tumor model L1210 Leukemia (intraperitoneal) in B6D2F1 (BDF1) mice
Details: endpoint: mean survival time, higher = longer survival
Summary of the method: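 Survival endpoint. Drug-treated group vs vehicle group, expressed as T divided by C. Tumor passaged by transplantation.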

[1] = dose: 100.0 mg/kg/injection, schedule: Q04DX003 (ip), vehicle: Klucel (hydroxypropylcellulose) (HPC)
[2] = dose: 200.0 mg/kg/injection, schedule: Q04DX003 (ip), vehicle: Klucel (hydroxypropylcellulose) (HPC)
[3] = dose: 400.0 mg/kg/injection, schedule: Q04DX003 (ip), vehicle: Klucel (hydroxypropylcellulose) (HPC)
[4] = dose: 50.0 mg/kg/injection, schedule: Q01DX009 (ip), vehicle: saline with Tween-80
[5] = dose: 100.0 mg/kg/injection, schedule: Q01DX009 (ip), vehicle: saline with Tween-80
[6] = dose: 100.0 mg/kg/injection, schedule: Q04DX003 (ip), vehicle: saline with Tween-80
[7] = dose: 200.0 mg/kg/injection, schedule: Q01DX009 (ip), vehicle: saline with Tween-80
[8] = dose: 200.0 mg/kg/injection, schedule: Q04DX003 (ip), vehicle: saline with Tween-80
[9] = dose: 100.0 mg/kg/injection, schedule: Q01DX001 (ip), vehicle: Klucel (hydroxypropylcellulose) (HPC)
[10] = dose: 200.0 mg/kg/injection, schedule: Q01DX001 (ip), vehicle: Klucel (hydroxypropylcellulose) (HPC)
[11] = dose: 100.0 mg/kg/injection, schedule: Q01DX001 (ip), vehicle: carboxymethylcellulose (CMC)
[12] = dose: 200.0 mg/kg/injection, schedule: Q01DX001 (ip), vehicle: carboxymethylcellulose (CMC)
[13] = dose: 400.0 mg/kg/injection, schedule: Q01DX001 (ip), vehicle: carboxymethylcellulose (CMC)
[14] = dose: 50.0 mg/kg/injection, schedule: Q01DX001 (ip), vehicle: Klucel (hydroxypropylcellulose) (HPC)
[15] = dose: 400.0 mg/kg/injection, schedule: Q01DX009 (ip), vehicle: saline with Tween-80
[16] = dose: 12.5 mg/kg/injection, schedule: Q01DX009 (ip), vehicle: saline
[17] = dose: 25.0 mg/kg/injection, schedule: Q01DX009 (ip), vehicle: saline
[18] = dose: 50.0 mg/kg/injection, schedule: Q01DX009 (ip), vehicle: saline
[19] = dose: 100.0 mg/kg/injection, schedule: Q01DX009 (ip), vehicle: saline
[20] = dose: 100.0 mg/kg/injection, schedule: Q04DX003 (ip), vehicle: saline
[21] = dose: 200.0 mg/kg/injection, schedule: Q01DX009 (ip), vehicle: saline
[22] = dose: 200.0 mg/kg/injection, schedule: Q04DX003 (ip), vehicle: saline

Measured: T/C

O=[N+]([O-])c1ncn(Cc2ccccc2)c1Br
inactive: [1] 91 % of control | [2] 94 % of control | [3] 89 % of control

COC(=O)/C(C#N)=N/O
inactive: [4] 102 % of control | [5] 97 % of control | [6] 100 % of control | [7] 94 % of control | [8] 94 % of control

Cc1ccccc1NC(=O)N(O)C1(C#N)CCCCC1
inactive: dose: 100.0 mg/kg/injection, schedule: Q01DX001 (ip), vehicle: saline 91 % of control | dose: 200.0 mg/kg/injection, schedule: Q01DX001 (ip), vehicle: saline 93 % of control | dose: 400.0 mg/kg/injection, schedule: Q01DX001 (ip), vehicle: saline 93 % of control

CCOC(C)=NC1=C(C#N)CP(c2ccccc2)CC1 (centres undefined)
inactive: dose: 100.0 mg/kg/injection, schedule: Q04DX002 (ip), vehicle: saline with Tween-80 103 % of control | dose: 200.0 mg/kg/injection, schedule: Q04DX002 (ip), vehicle: saline with Tween-80 95 % of control | dose: 400.0 mg/kg/injection, schedule: Q04DX002 (ip), vehicle: saline with Tween-80 92 % of control

CC(=O)NC(CSCc1ccccc1)(SCc1ccccc1)C(=O)O (centres undefined)
inactive: [9] 92 % of control | [10] 90 % of control | dose: 400.0 mg/kg/injection, schedule: Q01DX001 (ip), vehicle: Klucel (hydroxypropylcellulose) (HPC) 92 % of control

Nc1cccc2c1/C(=N/O)c1ccccc1-2
inactive: [11] 98 % of control | [12] 100 % of control | [13] 98 % of control

CN(C)c1ccc(/C=N\NC(=O)N/N=C/c2ccc(N(C)C)cc2)cc1
inactive: dose: 25.0 mg/kg/injection, schedule: Q01DX001 (ip), vehicle: Klucel (hydroxypropylcellulose) (HPC) 92 % of control | [14] 97 % of control | [9] 97 % of control and 90 % of control

Cc1c(O)ccc2c1CCCC2
inactive: dose: 25.0 mg/kg/injection, schedule: Q04DX003 (ip), vehicle: Klucel (hydroxypropylcellulose) (HPC) 103 % of control | dose: 50.0 mg/kg/injection, schedule: Q04DX003 (ip), vehicle: Klucel (hydroxypropylcellulose) (HPC) 97 % of control | dose: 100.0 mg/kg/injection, schedule: Q01DX009 (ip), vehicle: saline sonified 92 % of control | [1] 92 % of control and 117 % of control | dose: 200.0 mg/kg/injection, schedule: Q01DX009 (ip), vehicle: saline sonified 88 % of control | [2] 107 % of control | dose: 400.0 mg/kg/injection, schedule: Q01DX009 (ip), vehicle: saline sonified 94 % of control | [3] 103 % of control

Cc1ccccc1OS(=O)(=O)c1ccccc1[N+](=O)[O-]
inactive: [5] 103 % of control | [1] 95 % of control | [7] 90 % of control | [2] 104 % of control | [15] 108 % of control | [3] 90 % of control

CCOC(=O)CSc1c([N+](=O)[O-])c(C)nn1C
inactive: dose: 25.0 mg/kg/injection, schedule: Q01DX009 (ip), vehicle: water 101 % of control | dose: 50.0 mg/kg/injection, schedule: Q01DX009 (ip), vehicle: water 97 % of control | dose: 100.0 mg/kg/injection, schedule: Q01DX009 (ip), vehicle: water 105 % of control | dose: 200.0 mg/kg/injection, schedule: Q01DX009 (ip), vehicle: water 97 % of control | dose: 400.0 mg/kg/injection, schedule: Q01DX009 (ip), vehicle: water 92 % of control

CCCCCCCCCCCCSCCSCCSCCCCCCCCCCCC
inactive: [1] 93 % of control | [2] 92 % of control | [3] 98 % of control

C=CC1(O)CC2CCC1C2 (centres undefined)
inactive: [5] 101 % of control | [7] 96 % of control

CCOCc1nc2nc(Cl)c(Cl)nc2[nH]1
inactive: dose: 25.0 mg/kg/injection, schedule: Q04DX003 (ip), vehicle: saline with Tween-80 97 % of control | [4] 106 % of control | dose: 50.0 mg/kg/injection, schedule: Q04DX003 (ip), vehicle: saline with Tween-80 97 % of control | [5] 116 % of control | [6] 97 % of control | [7] 87 % of control | [8] 95 % of control and 97 % of control

CC(CO)NC(=O)C1C=C2c3cccc4[nH]cc(c34)CC2N(C)C1 (centres undefined)
inactive: dose: 3.12 mg/kg/injection, schedule: Q04DX003 (ip), vehicle: saline 114 % of control | dose: 6.25 mg/kg/injection, schedule: Q04DX003 (ip), vehicle: saline 114 % of control | [16] 109 % of control | dose: 12.5 mg/kg/injection, schedule: Q04DX003 (ip), vehicle: saline 114 % of control | [17] 95 % of control | dose: 25.0 mg/kg/injection, schedule: Q04DX003 (ip), vehicle: saline 101 % of control | [18] 96 % of control | dose: 50.0 mg/kg/injection, schedule: Q04DX003 (ip), vehicle: saline 103 % of control | [19] 95 % of control | [20] 100 % of control | [21] 96 % of control | [22] 102 % of control

O=C1CCCN1C[CH2][Sn]([c]1ccccc1)([c]1ccccc1)[c]1ccccc1
inactive: [18] 104 % of control | [19] 96 % of control | [21] 107 % of control

O=c1cc(-c2cccs2)ss1
inactive: [5] 89 % of control | [6] 102 % of control | [7] 105 % of control | [8] 94 % of control | [15] 86 % of control | dose: 400.0 mg/kg/injection, schedule: Q04DX003 (ip), vehicle: saline with Tween-80 104 % of control

Clc1ccc(C2ON2C2CCCCC2)cc1 (centres undefined)
inactive: [11] 95 % of control | [12] 101 % of control | [13] 101 % of control

COc1cc(O)c2ccccc2c1OC(C)=O
inactive: dose: 50.0 mg/kg/injection, schedule: Q01DX009 (ip), vehicle: Klucel (hydroxypropylcellulose) (HPC) 101 % of control | dose: 100.0 mg/kg/injection, schedule: Q01DX009 (ip), vehicle: Klucel (hydroxypropylcellulose) (HPC) 90 % of control | dose: 200.0 mg/kg/injection, schedule: Q01DX009 (ip), vehicle: Klucel (hydroxypropylcellulose) (HPC) 93 % of control

Cc1nc(N)[nH]c(=O)c1CCCNC(=O)c1ccc(C(=O)CBr)cc1
inactive: [14] 90 % of control | [10] 93 % of control

O=S(=O)(O)SCNCNCCSCc1ccccc1
inactive: dose: 12.5 mg/kg/injection, schedule: Q04DX002 (ip), vehicle: Klucel (hydroxypropylcellulose) (HPC) 91 % of control | dose: 25.0 mg/kg/injection, schedule: Q04DX002 (ip), vehicle: Klucel (hydroxypropylcellulose) (HPC) 112 % of control | dose: 50.0 mg/kg/injection, schedule: Q04DX002 (ip), vehicle: Klucel (hydroxypropylcellulose) (HPC) 91 % of control

CCN(CC)CCCOC(=O)c1ccc(N)cc1
inactive: [16] 103 % of control | [17] 97 % of control | [18] 98 % of control

O=[N+]([O-])C1CC12c1ccccc1-c1ccccc12 (centres undefined)
inactive: dose: 75.0 mg/kg/injection, schedule: Q01DX001 (ip), vehicle: carboxymethylcellulose (CMC) 106 % of control | dose: 150.0 mg/kg/injection, schedule: Q01DX001 (ip), vehicle: carboxymethylcellulose (CMC) 103 % of control | dose: 300.0 mg/kg/injection, schedule: Q01DX001 (ip), vehicle: carboxymethylcellulose (CMC) 97 % of control

Cc1ccc(NC(=O)COc2cc(Cl)c(Cl)cc2Cl)cc1C
inactive: dose: 25.0 mg/kg/injection, schedule: Q01DX009 (ip), vehicle: saline with Tween-80 89 % of control | [4] 97 % of control | [5] 89 % of control | [15] 94 % of control

O=C1NCCNC1=O
inactive: [20] 101 % of control | [22] 100 % of control | dose: 400.0 mg/kg/injection, schedule: Q04DX003 (ip), vehicle: saline 105 % of control

CN(C)C=NC1CCC(CC2CCCCC2)CC1 (centres undefined)
inactive: dose: 75.0 mg/kg/injection, schedule: Q04DX003 (ip), vehicle: Klucel (hydroxypropylcellulose) (HPC) 92 % of control | [9] 96 % of control | dose: 150.0 mg/kg/injection, schedule: Q04DX003 (ip), vehicle: Klucel (hydroxypropylcellulose) (HPC) 100 % of control | [10] 95 % of control | dose: 300.0 mg/kg/injection, schedule: Q04DX003 (ip), vehicle: Klucel (hydroxypropylcellulose) (HPC) 97 % of control
